Measured values as given in US20230183640A1, “METABOLIC INHIBITORS WITH EFFICACY FOR INHIBITING SULFIDE PRODUCTION IN HARSH ENVIRONMENTS” (MC (US) 3 LLC, priority 2020, published 2023).

Key:
[1] = test system: Desulfovibrio alaskensis 14563; assay: H2S and Log (Growth) efficacy against SRB, 96-Well Plate Method; assay type: cell-based
Protocol: A lyophilized Desulfovibrio alaskensis 14563, Desulfovibrio longus 51456, and Desulfovibrio gabonensis 700201 pure cultures received from ATCC were resuspended individually in 500 ul of MB 1250. Aseptically, the content was transferred to a 5-mL tube of MB1250 medium. The cultures were incubated in an anaerobic chamber at 30° C. for 72 hrs. Subsequently, an individual stock culture with a final concentration of 25% glycerol were prepared by adding equal volumes of culture and 50% glycerol. 1 ml of the cultures were then transferred to 2-ml cryogenic vials and stored at −80° C. The purity of the stock cultures was evaluated through PCR, by amplifying the 16S rDNA region, and thus, it was verified that the original ATCC sample was a pure culture. 48-hour cultures of ATCC Desulfovibrio alaskensis 14563, Desulfovibrio longus 51456, and Desulfovibrio gabonensis 700201 were prepared in an anaerobic chamber. Each culture was prepared as a 1:10 culture by taking 1 milliliter (mL) of a pure culture and inoculating 9 milliliters (mL) of fresh MB1250 media. The Desulfovibrio alaskensis 14563 and Desulfovibrio gabonensis 700201 were all grown at 30° C. and the Desulfovibrio longus 51456 culture was grown at 35° C.
After the 48-hour incubation, 600 microliters (μL) were taken from each culture and optical density (OD) was measured using a Thermofisher Spectronic 200 Spectrophotometer at 600 nm. Each culture was diluted to 0.05 OD600 in fresh MB1250 media and added to the 96 well plates. Edge wells were not used due to their inherent variability and evaporation of the media. Each of the components were added at their respective concentrations for a final volume of 500 μL per well. In Table 3, 6 and 7, the concentrations of the compound used for the experiments are listed. Each experiment was done with at least three replicates for different treatments and non-treatment controls. […] Plates were then sealed with a titer-top and placed into anaerobic boxes and incubated in an anaerobic incubator at 30° C.
At each time point, sulfide samples were taken, and enumeration plates were made. Enumeration plates were made to determine the log growth in each dosed sample. For this process, enumeration plates were prepared by adding 180 μL fresh media MB1250 containing 0.01 wt % ferrous ammonium sulfate. 20 μL was taken from each well of the challenge plates and transferred to the enumeration plates using a 20-200 μL multichannel pipette. Enumeration plates were mixed three times using the multichannel pipette and serial diluted down the plate tenfold (20 μL into 180 μL). This serial dilution process was repeated for all challenge plate rows giving a total of 6 enumeration plates.
After 7 days these enumeration plates were read. The ferrous ammonium sulfate in each plate would be converted to iron sulfide, changing wells with SRB growth from clear to black. By counting the number of black wells in a row, the log growth from the original well in the challenge plate can be determined.
To determine hydrogen sulfide production in each sample, sulfide samples were also taken from each challenge plate. From each well, 9 μL were taken and added to 60 μL of 2% zinc acetate with 0.02% acetic acid. Then, 180 μL of milliQ water was added. 60 μL of stock solution 1 containing 64% sulfuric acid, <1% Dimethyl-4-phenylenediamine (DMPD), water to 100% was added to each well on the plates. This was followed by 3 μL of stock solution 3 containing 50% Iron (III) chloride. All chemicals are ordered from Fisher Scientific and used as received. These were mixed three times and read after 15 minutes. The plates were read at 670 nm using a Biotek microplate reader. Absorbance readings were converted to mM using a standard curve and this was converted to parts per million using the molar mass of sulfur. The standard curves were made using sodium sulfide nonahydrate solutions to give final solutions of 0, 0.125, 0.25 0.5, 1.0, and 1.5 ppm.

[2] = test system: sulfate reducing bacteria; assay: Efficacy in inhibiting H2S production from sulfate reducing bacteria; assay type: cell-based
Protocol: To understand the hydrogen sulfide inhibition efficacy of the N-hydroxycarboxamide compounds of the present invention, several compounds were tested. Some compounds that can be used in this H2S inhibiting composition are disclosed in Table 2. For the testing procedures, the compounds were dissolved in DMSO, resulting in a stock solution of about 8000-100000 ppm, which was subsequently diluted in 96-well plates or 10 mL serum vials containing media and selected culture to give varying concentrations from 0.09 to 1000 ppm of the compounds in final solution for efficacy testing.
Strains of commonly found bacteria were used for testing the efficacy of the compounds, viz. Desulfovibrio alaskensis, Desulfovibrio longus and Desulfovibrio gabonensis. Media for the cultures was also prepared by using a standard method. The cultures were aseptically used and incubated under anaerobic conditions. Two well established methods were used for testing various compounds:
The compounds C1, C12, C14, C15 and C16 were tested individually to understand each of their efficacies in inhibiting the H2S production from sulfate reducing bacteria, under standard temperature and pressure conditions. The efficacy of compounds C14 and C15 against hydrogen sulfide production are disclosed in Example 1, Tables 6 and 7.

## O=C(CCCN1C(=O)c2cccc3cccc(c23)C1=O)NO [C12]
[1]; Table 6 run, 2 days, 7.615 PPM
  H2S: 77.6 PPM
  Log (Growth): 7
[1]; Table 6 run, 2 days, 15.75 PPM
  H2S: 115.3 PPM
  Log (Growth): 7.5
[1]; Table 6 run, 2 days, 31.25 PPM
  H2S: 90.1 PPM
  Log (Growth): 7.0
[1]; Table 6 run, 2 days, 125 PPM
  H2S: 91.4 PPM
  Log (Growth): 7.0
[1]; Table 6 run, 2 days, 500 PPM
  H2S: 8.7 PPM
  Log (Growth): 0.0
[1]; Table 6 run, 2 days, 1000 PPM
  H2S: 5.4 PPM
  Log (Growth): 0.0
[1]; Table 6 run, 5 days, 7.615 PPM
  H2S: 17.5 PPM
  Log (Growth): 8.0
[1]; Table 6 run, 5 days, 15.75 PPM
  H2S: 26.7 PPM
  Log (Growth): 8.0
[1]; Table 6 run, 5 days, 31.25 PPM
  H2S: 42.5 PPM
  Log (Growth): 7.0
[1]; Table 6 run, 5 days, 125 PPM
  H2S: 21.3 PPM
  Log (Growth): 3.0
[1]; Table 6 run, 5 days, 500 PPM
  H2S: 6.1 PPM
  Log (Growth): 0.0
[1]; Table 6 run, 5 days, 1000 PPM
  H2S: 4.8 PPM
  Log (Growth): 0.0
[1]; Table 7 run, 2 days, 7.615 PPM
  H2S: 67.5 PPM
  Log (Growth): 8.0
[1]; Table 7 run, 2 days, 15.75 PPM
  H2S: 43.7 PPM
  Log (Growth): 7.3
[1]; Table 7 run, 2 days, 31.25 PPM
  H2S: 18.2 PPM
  Log (Growth): 7.5
[1]; Table 7 run, 2 days, 125 PPM
  H2S: 12.2 PPM
  Log (Growth): 5.0
[1]; Table 7 run, 2 days, 500 PPM
  H2S: 2.2 PPM
  Log (Growth): 3.0
[1]; Table 7 run, 2 days, 1000 PPM
  H2S: 1.8 PPM
  Log (Growth): 2.5
[1]; Table 7 run, 5 days, 7.615 PPM
  H2S: 30.6 PPM
  Log (Growth): 7.3
[1]; Table 7 run, 5 days, 15.75 PPM
  H2S: 34.4 PPM
  Log (Growth): 6.7
[1]; Table 7 run, 5 days, 31.25 PPM
  H2S: 15.1 PPM
  Log (Growth): 5.5
[1]; Table 7 run, 5 days, 125 PPM
  H2S: 6.2 PPM
  Log (Growth): 5.0
[1]; Table 7 run, 5 days, 500 PPM
  H2S: 1.9 PPM
  Log (Growth): 0.0
[1]; Table 7 run, 5 days, 1000 PPM
  H2S: 2.0 PPM
  Log (Growth): 0.0
[2]; anaerobic conditions
  efficacy for inhibiting hydrogen sulfide production: high efficacy

## O=C(CCCCCCC(=O)NO)NO [C14]
[1]; Table 6 run, 2 days, 7.615 PPM
  H2S: 71.3 PPM
  Log (Growth): 7.0
[1]; Table 6 run, 2 days, 15.75 PPM
  H2S: 56.4 PPM
  Log (Growth): 8.0
[1]; Table 6 run, 2 days, 31.25 PPM
  H2S: 56.3 PPM
  Log (Growth): 7.3
[1]; Table 6 run, 2 days, 125 PPM
  H2S: 131.9 PPM
  Log (Growth): 8.0
[1]; Table 6 run, 2 days, 500 PPM
  H2S: 54.6 PPM
  Log (Growth): 7.7
[1]; Table 6 run, 2 days, 1000 PPM
  H2S: 117.5 PPM
  Log (Growth): 7.7
[1]; Table 6 run, 5 days, 7.615 PPM
  H2S: 45.6 PPM
  Log (Growth): 7.3
[1]; Table 6 run, 5 days, 15.75 PPM
  H2S: 34.7 PPM
  Log (Growth): 7.3
[1]; Table 6 run, 5 days, 31.25 PPM
  H2S: 29.0 PPM
  Log (Growth): 7.3
[1]; Table 6 run, 5 days, 125 PPM
  H2S: 45.0 PPM
  Log (Growth): 7.3
[1]; Table 6 run, 5 days, 500 PPM
  H2S: 42.2 PPM
  Log (Growth): 7.0
[1]; Table 6 run, 5 days, 1000 PPM
  H2S: 38.6 PPM
  Log (Growth): 8.0
[2]; Tables 6 and 7
  activity in reducing H2S production: did not show significant activity
